In patent US10233168B2, “14-hydroxy-docosahexaenoic acid compounds” (The Brigham And Women's Hospital, Inc., priority 2008, dated 2019):

What was measured:
[1] = system: PMN; assay: murine zymosan A-induced peritonitis, exudate PMN; type: in vivo, mice
Method: (§1) The 7,14-dihydroxy-containing products were isolated from methyl formate fractions obtained from murine MΦs via RP-HPLC (Agilent 1100 series) using a Beckman C18 column (250 mm×10 mm×5 μm) and methanol/water (65/35; v/v) ramped to 85/15 (v/v) for 30 min. Their actions were assessed in murine zymosan A-induced peritonitis (19). Peritonitis was initiated by intraperitoneal (i.p.) administration of 1 mg zymosan A in 1 ml of sterile saline, and each compound was administered i.v. 5 min before zymosan. At 2 h, mice were sacrificed, and peritoneal exudates harvested (5 ml DPBS^−/− without calcium and magnesium), identified and enumerated by light microscopy and FACS. Resident MΦs were identified by FACS (8). To assess pro-resolving actions, peritoneal MΦs (24-well plate, 10^5 cells/well) from naïve mice were incubated with each compound (15 min, pH 7.45) followed by addition of FITC-labeled Zymosan A (30 min, 37° C.). Trypan blue was used to quench extracellular zymosan particles (1 min, 37° C.) followed by DPBS^+/+ (pH 7.45), and phagocytosis quantified using a Perkin-Elmer Victor^3.

[2] = system: peritoneal MΦs; assay: MΦ phagocytosis of FITC-labeled zymosan; type: cell-based, mice; conditions: for enhancement of MΦ phagocytosis of zymosan: 15 min compound, then FITC-labeled zymosan 30 min, 37° C.
Method: as §1

[3] = system: peritoneal MΦs; conditions: literature ref. 13; cited from earlier work
[4] = system: lipoxygenase (LOX); assay: LC/MS/MS lipidomics of peritonitis exudates with LOX inhibitor; type: in vivo, mice; conditions: exudates obtained with the LOX inhibitor, n=3
Method: In view of the actions of specialized chemical mediators in resolution (6, 7), 17-HDHA was monitored as a biomarker of activation and conversion of endogenous DHA, as well as employed targeted lipidomics to query whether other pathways were operative (see FIG. 1). During this course of peritonitis, PMN rapidly entered, reaching max within 12 h. In this self-resolving system (19), PMN declined and were lost from exudates, thus defining resolution (FIG. 1). Unbiased targeted mediator lipidomics employing LC/MS/MS-based analyses were carried out with these exudates. In addition to 17S-HDHA, a marker of resolvin and protectin biosynthesis (6), endogenous DHA was converted to 14S-hydroxydocosahexaenoic acid (14S-HDHA).

Question: With `CC/C=C\C/C=C\CC(O)C=CC=CC=CC(O)C/C=C\CCC(=O)O` (stereo not drawn) [MaR1, 7,14-dihydroxydocosa-4Z,8,10,12,16Z,19Z-hexaenoic acid] as the compound, how does the “dose (as low as) that potently reduced infiltration of PMN into sites of inflammation” value ([1]; i.v. before i.p. zymosan, dose response FIG. 3C) read?
Answer: 0.2 ng/mouse

Question: What about the “anti-inflammatory action regulating PMN entry into zymosan-induced peritonitis” value ([1]; nanogram quantities per mouse, FIG. 3A) of the same compound?
Answer: stopping PMN infiltration

Question: And the “enhancement of MΦ phagocytosis of zymosan” value (shortened to “enhancement”) ([2]; FIG. 3D)?
Answer: enhances phagocytosis

Question: And the “potency compared to RvE1 and PD1” value ([2]; FIG. 3, inset comparison at 1 nM)?
Answer: comparable potency

Question: Which “concentration (as low as) enhancing MΦ phagocytosis” value [3] does the source give for `CC/C=C\C[C@H](O)\C=C/C=C/C=C/[C@H](O)C/C=C\C/C=C\CCC(=O)O` [PD1, 10R,17S-dihydroxydocosa-4Z,7Z,11E,13E,15Z,19Z-hexaenoic acid] here?
Answer: 1 nM

Question: With `CCCCC[C@H](O)/C=C/[C@H]1[C@H](O)CC(=O)[C@@H]1C/C=C\CCCC(=O)O` [PGE2, prostaglandin E2, reference compound] as the compound, how does the “enhancement” value ([2]; FIG. 3D) read?
Answer: did not enhance phagocytosis

Question: With `CC[C@@H](O)/C=C/C=C\C[C@@H](O)/C=C/C=C/C=C\[C@@H](O)CCCC(=O)O` [RvE1, 5S,12R,18R-trihydroxyeicosa-6Z,8E,10E,14Z,16E-pentaenoic acid] as the compound, how does the “concentration (as low as) enhancing MΦ phagocytosis” value [3] read?
Answer: 1 nM

Question: For `CC/C=C\C/C=C\C[C@H](O)/C=C/C=C\C=C\[C@@H](O)C/C=C\CCC(=O)O` [double dioxygenation product, 7S,14S-dihydroxydocosa-4Z,8E,10Z,12E,16Z,19Z-hexaenoic acid], which “PMN infiltration in zymosan-induced peritonitis” value ([1]; 0.1 ng dose per mouse, leukocytes enumerated after 2 h, FIG. 3B) is on record?
Answer: reduced PMN infiltration

Question: And the “potency on PMN infiltration compared with the MΦ isolated material” value ([1]; 0.1 ng/mouse each, FIG. 3B)?
Answer: less potent

Question: What about the “enhancement” value ([2]; FIG. 3D) of the same compound?
Answer: active

Question: And the “potency in phagocytosis compared with the new product isolated from MΦs” value ([2]; direct comparison, FIG. 3D)?
Answer: less potent

Question: With `O=c1ccc2cc(O)c(O)cc2o1` [esculetin] as the compound, how does the “17S-HDHA and 14S-HDHA in peritonitis exudates” value [4] read?
Answer: Neither product was identified
